Source: ChEMBL document CHEMBL1136862, “Development of thioquinazolinones, allosteric Chk1 kinase inhibitors” (Bioorg Med Chem Lett, 2009)

Key:
[1] = biological target: T1, Serine/threonine-protein kinase Chk1 (Homo sapiens, UniProt O14757); experiment: Inhibition of C-terminal 6-His tagged human Chk1 by HTRF assay in presence of 0.1 mM ATP
T1 sequence (O14757 whole entry): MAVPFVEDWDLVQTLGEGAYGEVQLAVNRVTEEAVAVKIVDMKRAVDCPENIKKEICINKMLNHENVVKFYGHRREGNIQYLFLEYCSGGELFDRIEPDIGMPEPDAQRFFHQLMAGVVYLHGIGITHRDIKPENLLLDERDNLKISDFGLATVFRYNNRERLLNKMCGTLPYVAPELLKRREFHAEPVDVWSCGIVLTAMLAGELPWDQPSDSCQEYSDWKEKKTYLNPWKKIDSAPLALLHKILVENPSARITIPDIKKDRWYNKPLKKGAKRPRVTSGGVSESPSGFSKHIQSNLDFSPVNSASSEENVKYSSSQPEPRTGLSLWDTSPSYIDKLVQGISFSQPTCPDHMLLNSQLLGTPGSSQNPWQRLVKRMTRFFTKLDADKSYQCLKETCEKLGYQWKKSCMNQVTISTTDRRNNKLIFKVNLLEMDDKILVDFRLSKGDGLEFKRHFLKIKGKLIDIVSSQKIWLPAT

[2] = biological target: T2, Serine/threonine-protein kinase Chk1 (Homo sapiens) (UniProt O14757); experiment: Inhibition of C-terminal 6-His tagged human Chk1 at 100 uM by HTRF assay in presence of 0.1 mM ATP
T2 sequence (whole entry): T1 sequence (O14757 whole entry)

[3] = biological target: T1, Serine/threonine-protein kinase Chk1; experiment: Inhibition of C-terminal 6-His tagged human Chk1 by HTRF assay in presence of 2.0 mM ATP

Structure (SMILES) | IC50 [1] | inhibition [2] | also measured
CCCCC(Sc1nc2c(C)cccc2c(=O)n1-c1cccc(Cl)c1)C(=O)N1CCC(C(N)=O)CC1 (stereo not drawn) | 17 µM |  | 
CCCCC(Sc1nc2c(OC)cccc2c(=O)n1-c1cccc(Cl)c1)C(=O)N1CCC(C(N)=O)CC1 (stereo not drawn) | 21 µM |  | 
CC(C)C(Sc1nc2ccccc2c(=O)n1-c1cccc(Cl)c1)C(=O)N1CCC(C(N)=O)CC1 (stereo not drawn) | > 100 µM |  | 
CCCCC(Sc1nc2ccccc2c(=O)n1C(C)C)C(=O)N1CCC(C(N)=O)CC1 (stereo not drawn) |  | 20% | 
CCCCC(Sc1nc2c(O)cccc2c(=O)n1-c1cccc(Cl)c1)C(=O)N1CCC(C(N)=O)CC1 (stereo not drawn) | 20 µM |  | 
CCCCC(Sc1nc2ccccc2c(=O)n1C1CCCCC1)C(=O)N1CCC(C(N)=O)CC1 (stereo not drawn) |  | 17% | 
NC(=O)C1CCN(C(=O)C(Sc2nc3ccccc3c(=O)n2-c2cccc(Cl)c2)c2ccccc2)CC1 (stereo not drawn) | 21 µM |  | 
CC(C)CC(Sc1nc2ccccc2c(=O)n1-c1cccc(Cl)c1)C(=O)N1CCC(C(N)=O)CC1 (stereo not drawn) | 2.8 µM |  | 
CCCCC(Sc1nc2cccc(C)c2c(=O)n1-c1cccc(Cl)c1)C(=O)N1CCC(C(N)=O)CC1 (stereo not drawn) | > 100 µM |  | 
CCCCC(Sc1nc2cc(C)ccc2c(=O)n1-c1cccc(Cl)c1)C(=O)N1CCC(C(N)=O)CC1 (stereo not drawn) | 28 µM |  | 
CCCCC(Sc1nc2ccccc2c(=O)n1C)C(=O)N1CCC(C(N)=O)CC1 (stereo not drawn) |  | 48% | 

The next lines start with results.

IC50 [1] | inhibition [2] | Structure (SMILES) | also measured
4.5 µM |  | CCCCC(Sc1nc2ccccc2c(=O)n1-c1ccccc1)C(=O)N1CCC(c2ccccc2)(c2ccccc2)CC1 (stereo not drawn) | 
> 100 µM |  | CCCCC(Sc1nc2ccccc2c(=O)n1-c1ccc(Cl)cc1)C(=O)N1CCC(C(N)=O)CC1 (stereo not drawn) | 
3.3 µM |  | CCCCC(Sc1nc2ccccc2c(=O)n1-c1ccccc1)C(=O)N1CCN(c2ccccc2)CC1 (stereo not drawn) | 
41 µM |  | CCCCC(Sc1nc2ccccc2c(=O)n1-c1ccccc1Cl)C(=O)N1CCC(C(N)=O)CC1 (stereo not drawn) | 
> 100 µM |  | CCCCC(Sc1nc2ccccc2c(=O)n1-c1ccccc1)C(=O)NC(C)(C)C (stereo not drawn) | 
3.8 µM |  | CCCCC(Sc1nc2ccccc2c(=O)n1-c1ccccc1)C(=O)N1CCCC2(CCCNC2)C1 (stereo not drawn) | 
6 µM |  | CCCCC(Sc1nc2ccccc2c(=O)n1-c1ccccc1)C(=O)N1CCS(=O)(=O)CC1 (stereo not drawn) | 
17 µM |  | CCCCC(Sc1nc2ccccc2c(=O)n1-c1ccccc1)C(=O)N1CCC(C(N)=O)CC1 (stereo not drawn) | IC50 [3]: 24 µM
 | 3% | CCCCC(Sc1nc2ccccc2c(=O)n1-c1ccccc1)C(=O)NC1CC2CCC1C2 (stereo not drawn) | 
 | 62% | CCCCC(Sc1nc2ccccc2c(=O)n1-c1ccccc1)C(=O)N(CC)CC (stereo not drawn) | 
 | 26% | CCCCC(Sc1nc2ccccc2c(=O)n1Cc1cccnc1)C(=O)N1CCC(C(N)=O)CC1 (stereo not drawn) | 
> 100 µM |  | CCCCC(Sc1nc2ccccc2c(=O)n1-c1ccccc1)C(=O)NC12CC3CC(CC(C3)C1)C2 (stereo not drawn) | 
 | 35% | CCCCC(Sc1nc2ccccc2c(=O)n1-c1cccnc1)C(=O)N1CCC(C(N)=O)CC1 (stereo not drawn) | 
 | 20% | CCCCC(Sc1nc2ccccc2c(=O)n1-c1ccnc(Cl)c1)C(=O)N1CCC(C(N)=O)CC1 (stereo not drawn) | 
 | 30% | CCCCC(Sc1nc2ccc(C)cc2c(=O)n1-c1cccc(Cl)c1)C(=O)N1CCC(C(N)=O)CC1 (stereo not drawn) | 
> 100 µM |  | CCCCC(Sc1nc2ccccc2c(=O)n1-c1ccccc1)C(=O)NC1CCCCC1 (stereo not drawn) | 
